Tests used:
human D2(long) = human D2(long) (Homo sapiens, UniProt P14416); assay: Competitive radioligand binding at D2 dopamine receptor with 125I-IABN; details: for D3:D2: Ki for D3 receptors/Ki for D2 receptors; for D4:D2: Ki for D4 receptors/Ki for D2 receptors
human D3 = human D3 (Homo sapiens, UniProt P35462); assay: Competitive radioligand binding at D3 dopamine receptor with 125I-IABN; details: relative to aripiprazole
human D4 = target: T1, human D4 (Homo sapiens, UniProt P21917); format: binding; details: human D4 expressed in HEK cells, [125I]ABN radioligand; mean ± SEM, at least three experiments
T1 sequence (P21917 1-419): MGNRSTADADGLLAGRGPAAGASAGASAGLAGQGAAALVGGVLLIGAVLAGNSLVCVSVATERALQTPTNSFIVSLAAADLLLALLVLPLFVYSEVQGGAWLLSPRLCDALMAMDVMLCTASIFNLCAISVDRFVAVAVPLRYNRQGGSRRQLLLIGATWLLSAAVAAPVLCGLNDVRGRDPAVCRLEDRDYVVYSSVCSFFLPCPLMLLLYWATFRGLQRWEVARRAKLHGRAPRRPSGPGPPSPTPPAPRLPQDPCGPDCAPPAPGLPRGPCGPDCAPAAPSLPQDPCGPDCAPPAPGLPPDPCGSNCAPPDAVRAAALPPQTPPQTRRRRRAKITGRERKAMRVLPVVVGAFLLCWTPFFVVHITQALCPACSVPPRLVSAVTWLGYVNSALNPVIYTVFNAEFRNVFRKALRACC

human D2 receptors = human D2 receptors (Homo sapiens, UniProt P14416); assay: Whole cell forskolin-dependent adenylyl cyclase inhibition assay, D2L HEK cells; format: cell-based
human D2 receptors, sequence (P14416 whole entry): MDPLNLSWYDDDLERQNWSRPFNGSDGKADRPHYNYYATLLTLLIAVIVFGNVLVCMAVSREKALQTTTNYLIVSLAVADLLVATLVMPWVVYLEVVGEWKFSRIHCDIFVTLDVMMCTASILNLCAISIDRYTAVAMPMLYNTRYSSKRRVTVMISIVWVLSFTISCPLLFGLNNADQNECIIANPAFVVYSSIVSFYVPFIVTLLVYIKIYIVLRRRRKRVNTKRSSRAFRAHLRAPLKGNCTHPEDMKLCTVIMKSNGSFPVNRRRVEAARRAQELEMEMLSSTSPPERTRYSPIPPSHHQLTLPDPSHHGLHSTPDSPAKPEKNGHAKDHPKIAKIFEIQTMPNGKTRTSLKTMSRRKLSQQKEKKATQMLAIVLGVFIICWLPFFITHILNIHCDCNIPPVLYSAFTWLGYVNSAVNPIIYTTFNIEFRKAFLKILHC

human D2(long), sequence (P14416 whole entry): as above
human D3, sequence (P35462 whole entry): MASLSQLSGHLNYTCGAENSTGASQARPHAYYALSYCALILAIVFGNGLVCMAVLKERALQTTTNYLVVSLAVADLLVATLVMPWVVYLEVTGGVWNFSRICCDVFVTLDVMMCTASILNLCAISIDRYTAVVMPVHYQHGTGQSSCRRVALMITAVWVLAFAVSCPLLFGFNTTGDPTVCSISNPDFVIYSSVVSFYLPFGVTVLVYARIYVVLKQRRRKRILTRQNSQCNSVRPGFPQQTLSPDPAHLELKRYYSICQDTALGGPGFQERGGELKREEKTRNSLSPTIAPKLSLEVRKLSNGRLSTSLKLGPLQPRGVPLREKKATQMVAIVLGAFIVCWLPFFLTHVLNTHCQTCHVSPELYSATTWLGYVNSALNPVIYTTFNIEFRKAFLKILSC

Structure (SMILES) | D3:D2 (human D2(long)) | D4:D2 (human D2(long)) | increase in affinity at D2 receptors (human D2(long); relative to aripiprazole) | decrease in affinity at D3 receptors (human D3) | Ki D4 (human D4) | intrinsic efficacy greater at D2 receptors compared to D3 receptors (human D2 receptors)
O=C(O)C(=O)O.O=C1CCc2ccc(OCCCCN3CCC(n4c(=O)[nH]c5ccccc54)CC3)cc2N1 [Compound 3, 7-(4-(4-(2-Oxo-2,3-dihydro-1H-benzo[d]imidazol-1-yl)-piperidin-1-yl)butoxy)-3,4-dihydroquinolin-2(1H)-one oxalate] | 6.1 | 7.1 |  |  |  | 
O=C(O)C(=O)O.O=C1CCc2ccc(OCCCCN3CCC(n4c(=O)[nH]c5cc(Cl)ccc54)CC3)cc2N1 [Compound 4, 7-(4-(4-(5-Chloro-2-oxo-2,3-dihydro-1H-benzo[d]imidazol-1-yl)piperidin-1-yl)butoxy)-3,4-dihydroquinolin-2(1H)-one oxalate] | 1.9 | 4.4 |  |  |  | 
CN1CN(c2ccccc2)C2(CCN(CCCCOc3ccc4c(c3)NC(=O)CC4)CC2)C1=O.O=C(O)C(=O)O [Compound 5, 7-(4-(3Methyl-4-oxo-1-phenyl-1,3,8-triazaspiro[4.5]decan-8-yl)butoxy)-3,4-dihydro-quinolin-2(1H)-one oxalate] | 0.7 | 1.4 |  |  |  | 
O=C(O)C(=O)O.O=C1CCc2ccc(OCCCCN3CCN(c4ccccc4OCCF)CC3)cc2N1 [Compound 7, 7-(4-(4-(2-(2-Fluoroethoxy)phenyl)piperazin-1-yl)butoxy)-3,4-dihydroquinolin-2(1H)-one oxalate] |  |  | 12 fold | 2 fold | low affinity | 16–75%

Reference: publication PMC3118479 (Bioorganic & medicinal chemistry, 2011)
